{"source": "patent US20110118304A1", "about": "“METHOD FOR TREATING OVER-EATING DISORDERS” (NeuroSearch A/S, priority 2007, published 2011)", "test_system": "Diet-Induced Obese Rats", "test": "Effect of tesofensine on food-intake in diet-induced obese rats", "type": "in vivo, male Sprague-Dawley rats", "settings": "single subcutaneous injection of 1,5 mg/kg at lights out; diet-induced obese rats on high-fat diet; versus vehicle (saline); FIG. 1", "experimental": "These rats were from 3-5 weeks of age only given access to a high-fat diet (#12266B; 31.8% kcal from fat, energy density […], Research Diets, New Jersey). After 17 weeks on high-fat diet, animals were stratified according to body weight. Tesofensine was injected in different doses to male Sprague-Dawley rats. Vehicle (saline), or tesofensine at different doses (from 0,5 mg/kg to 2,0 mg/kg) was administered as a single subcutaneous injection at lights out. The level of food-intake was continuously determined over the next 18 hours in an automated food-delivering system.\nIn FIG. 1, the level of food-intake over night is illustrated of two groups of animals; receiving either a single dose of 1,5 mg/kg tesofensine (triangles) or vehicle (squares).\nIn FIG. 2, a relation between increasing doses of tesofensine and the accumulated food-intake over a 18 h observation is shown."}
{"smiles": "CCOC[C@@H]1[C@@H](c2ccc(Cl)c(Cl)c2)C[C@@H]2CC[C@H]1N2C", "note": "[tesofensine, (1R,2R,3S,5S)-3-(3,4-dichlorophenyl)-2-(ethoxymethyl)-8-methyl-8-azabicyclo[3.2.1]octane]", "values": [{"measurement": "level of food-intake over night", "result": "inhibits food intake over night"}]}
